In patent US8937077B2, “Bicyclic diamines as janus kinase inhibitors” (Merck Sharp & Dohme Corp., priority 2010, dated 2015):

Biological target: T1, Jak1 (Homo sapiens, UniProt P23458)
T1 construct: using a recombinant purified GST-tagged catalytic domain for each enzyme; GST; purchased Invitrogen M4290
Experiment: Jak Biochemical HTRF Assay (Jak1)
Conditions: IC50 class, recombinant GST-tagged catalytic domain, read-out: Jak1 activity
From the text: Compounds of formula I can be prepared according to the general procedures described in the Schemes and Examples herein, using appropriate materials. Representative compounds of the present invention are exemplified herein below. The compounds exemplified are not, however, to be construed as limiting the scope of the invention in any manner. The examples further illustrate details for the preparation of the compounds of the present invention. Those skilled in the art will readily understand that known variations of protecting groups, of reagents, as well as of the conditions and processes of the following preparative procedures, can be used to prepare these compounds. It is also understood that whenever a chemical reagent is not commercially available, such a chemical reagent can be readily prepared by those skilled in the art by either following or adapting known methods described in the literature or described herein. Chiral analogs were prepared via incorporation of chiral reagents or obtained after chiral chromatography separation of a racemically generated analog. All temperatures are degrees Celsius unless otherwise noted. Mass spectra (MS) were measured either by electrospray ion-mass spectroscopy (ESMS) or by atmospheric pressure chemical ionization mass spectroscopy (APCI). Jak1 data were obtained using the in vitro assay described below.
Jak Biochemical HTRF Assay Protocol
The ability of compounds to inhibit the activity of Jak1, Jak2, Jak3, and Tyk2 was measured using a recombinant purified GST-tagged catalytic domain for each enzyme (Invitrogen Jak1 #M4290, […]) in an HTRF format biochemical assay. The reactions employed a common peptide substrate, LCB-EQEDEPEGDYFEWLW-NH2 (in-house). The basic assay protocol is as follows: First, […] of diluted compounds in DMSO were dispensed into the wells of a dry 384-well Black plate (Greiner #781076) using a Labcyte Echo 555 acoustic dispenser. Subsequent reagent additions employed an Agilent Bravo. Next, 18 μL, of 1.11X enzyme and 1.11X substrate in 1X assay buffer (Invitrogen kinase buffer #PV3189, 2 mM DTT, 0.05% BSA) were added to the wells and shaken and then preincubated for 30 minutes at room temperature to allow compound binding to equilibrate. After equilibration, 2 μL of 10X ATP in 1X assay buffer was added to initiate the kinase reaction and the plates were shaken and then incubated at room temperature for 120 minutes. At the end of the incubation, 20 μL of 2X stop buffer (streptavidin-Dylight (Thermo #21845), Eu-tagged pY20 antibody (Perkin Elmer #AD0067), EDTA, HEPES, and Triton) was added to quench the reaction. Plates were shaken and centrifuged and then incubated 60 minutes at room temperature and then read on a Perkin Elmer Envision (λex=337 nm, λem=665 and 615 nm, TRF delay time=20 μs). HTRF signal=10,000*665 nm reading/615 nm reading. After normalization to untreated controls, the percent inhibition of the HTRF signal at each compound concentration was calculated. The plot of percent inhibition versus the log of compound concentration was fit with a 4-parameter dose response equation to calculate IC50 values.

T1 sequence (P23458 875-1153 limits assumed): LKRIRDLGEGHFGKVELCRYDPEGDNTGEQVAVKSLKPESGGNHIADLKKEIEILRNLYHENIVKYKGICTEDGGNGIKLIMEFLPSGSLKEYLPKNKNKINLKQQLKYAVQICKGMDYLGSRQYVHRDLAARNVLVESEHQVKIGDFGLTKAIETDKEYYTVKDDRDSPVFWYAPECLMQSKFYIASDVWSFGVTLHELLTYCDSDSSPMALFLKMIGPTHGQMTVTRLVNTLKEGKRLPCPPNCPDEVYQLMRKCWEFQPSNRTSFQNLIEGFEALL

Structure (SMILES)	IC50
O=C(OC1CCOCC1)N1CCCC2C1CCN2c1ncnc2[nH]ccc12 (stereo not drawn) [Example 3-10, tetrahydro-2H-pyran-4-yl 1-(7H-pyrrolo[2,3-d]pyrimidin-4-yl)octahydro-4H-pyrrolo[3,2-b]pyridine-4-carboxylate]	10 to 100 nM
O=C(OCCCc1cccnc1)N1CCC[C@@H]2[C@H]1CCN2c1ncnc2[nH]ccc12 [Example 3-48, 3-pyridin-3-ylpropyl (3 aR,7 aR)-1-(7H-pyrrolo[2,3-d]pyrimidin-4-yl)octahydro-4H-pyrrolo[3,2-b]pyridine-4-carboxylate]	10 to 100 nM
O=C(OCc1ccc(Cl)cc1)N1CCCC2C1CCN2c1ncnc2[nH]ccc12 (stereo not drawn) [Example 3-6, 4-chlorobenzyl 1-(7H-pyrrolo[2,3-d]pyrimidin-4-yl)octahydro-4H-pyrrolo[3,2-b]-pyridine-4-carboxylate]	10 to 100 nM
O=C(OCCN1CCS(=O)(=O)CC1)N1CCC[C@@H]2[C@H]1CCN2c1ncnc2[nH]ccc12 [Example 3-27, 2-(1,1-dioxidothiomorpholin-4-yl)ethyl (3 aR,7 aR)-1-(7H-pyrrolo[2,3-d]pyrimidin-4-yl)octahydro-4H-pyrrolo[3,2-b]pyridine-4-carboxylate]	100 to 1000 nM
CC(C)(C)OC(=O)NCc1ccc(COC(=O)N2CCC[C@@H]3[C@H]2CCN3c2ncnc3[nH]ccc23)cc1 [Example 8-1, 4-{[(tert-butoxycarbonyl)amino]methyl}benzyl(3aR,7aR)-1-(7H-pyrrolo[2,3-d]pyrimidin-4-yl)octahydro-4-pyrrolo[3,2-b]pyridine-4-carboxylate]	100 to 1000 nM
CN(C)CCOC(=O)N1CCC[C@@H]2[C@H]1CCN2c1ncnc2[nH]ccc12 (single isomer, unassigned) [Example 3-38]	100 to 1000 nM
O=C(OC(CCN1CCOCC1)c1ccccc1)N1CCC[C@@H]2C1CCN2c1ncnc2[nH]ccc12 (mixture of isomers) [Example 8-3, (1R and 1S)-3-(morpholin-4-yl)-1-phenylpropyl (3aR,7aR)-1-(7H-pyrrolo[2,3-d]pyrimidin-4-yl)octahydro-4-pyrrolo[3,2-b]pyridine-4-carboxylate]	100 to 1000 nM
O=C(OCCc1ccccc1)N1CCCC2C1CCN2c1ncnc2[nH]ccc12 (stereo not drawn) [Example 3-8, 2-phenylethyl 1-(7H-pyrrolo[2,3-d]pyrimidin-4-yl)octahydro-4H-pyrrolo[3,2-b]pyridine-4-carboxylate]	10 to 100 nM
O=C(CO)N1CCCC2C1CCN2c1ncnc2[nH]ccc12 [Example 17, (3aS,7aS and 3aR,7aR) 2-hydroxy-1-[1-(7H-pyrrolo[2,3-d]pyrimidin-4-yl)octahydro-4H-pyrrolo[3,2-b]pyridine-4-yl]ethanone]	100 to 1000 nM
O=C(OC1Cc2ccccc2C1)N1CCCC2C1CCN2c1ncnc2[nH]ccc12 (stereo not drawn) [Example 3-11, 2,3-dihydro-1H-inden-2-yl 1-(7H-pyrrolo[2,3-d]pyrimidin-4-yl)octahydro-4H-pyrrolo[3,2-b]pyridine-4-carboxylate]	10 to 100 nM
O=C(OCc1ccncc1)N1CCCC2C1CCN2c1ncnc2[nH]ccc12 (stereo not drawn) [Example 3-13, pyridin-4-ylmethyl 1-(7H-pyrrolo[2,3-d]pyrimidin-4-yl)octahydro-4H-pyrrolo[3,2-b]-pyridine-4-carboxylate]	10 to 100 nM
COC(=O)c1ccc(CCCOC(=O)N2CCC[C@@H]3[C@H]2CCN3c2ncnc3[nH]ccc23)cc1 [Example 3-22, 3-[4-(methoxycarbonyl)phenyl]propyl (3aR,7aR)-1-(7H-pyrrolo[2,3-d]pyrimidin-4-yl)octahydro-4H-pyrrolo[3,2-b]pyridine-4-carboxylate]	10 to 100 nM

More lines, now with the values ahead:

IC50	Structure (SMILES)
10 to 100 nM	O=C(c1cccc2cnccc12)N1CCC[C@@H]2[C@H]1CCN2c1ncnc2[nH]ccc12 [Example 29-37, 5-{[(3aR,7aR)-1-(7H-pyrrolo[2,3-d]pyrimidin-4-yl)octahydro-4H-pyrrolo[3,2-b]pyridin-4-yl]carbonyl}isoquinoline]
10 to 100 nM	O=C(c1ccncc1)N1CCC[C@@H]2[C@H]1CCN2c1ncnc2[nH]ccc12 [Example 29-12, 4-[(3aR,7aR)-4-(pyridin-4-ylcarbonyl)octahydro-1H-pyrrolo[3,2-b]pyridin-1-yl]-7H-pyrrolo[2,3-d]pyrimidine]
10 to 100 nM	N#Cc1ccccc1C(=O)N1CCC[C@@H]2[C@H]1CCN2c1ncnc2[nH]ccc12 [Example 29-33, 2-{[(3aR,7aR)-1-(7H-pyrrolo[2,3-d]pyrimidin-4-yl)octahydro-4H-pyrrolo[3,2-b]pyridin-4-yl]carbonyl}benzonitrile]
100 to 1000 nM	CN1CCCC(CCC(=O)N2CCC[C@@H]3[C@H]2CCN3c2ncnc3[nH]ccc23)C1 (stereo partly drawn) [Example 29-55, 4-{(3aR,7aR)-4-[3-(1-methylpiperidin-3-yl)propanoyl]octahydro-1H-pyrrolo[3,2-b]pyridin-1-yl}-7H-pyrrolo[2,3-d]pyrimidine]
100 to 1000 nM	O=C1CCCN1CC(=O)N1CCC[C@@H]2[C@H]1CCN2c1ncnc2[nH]ccc12 [Example 29-16, 1-{2-oxo-2-[(3aR,7aR)-1-(7H-pyrrolo[2,3-d]pyrimidin-4-yl)octahydro-4H-pyrrolo[3,2-b]pyridin-4-yl]ethyl}pyrrolidin-2-one]
100 to 1000 nM	O=C(C(c1ccccc1)c1ccccc1)N1CCC[C@@H]2[C@H]1CCN2c1ncnc2[nH]ccc12 [Example 29-24, 4-[(3aR,7aR)-4-(diphenylacetyl)octahydro-1H-pyrrolo[3,2-b]pyridin-1-yl]-7H-pyrrolo[2,3-d]pyrimidine]
100 to 1000 nM	O=C(c1cc2ccccn2c1)N1CCC[C@@H]2[C@H]1CCN2c1ncnc2[nH]ccc12 [Example 29-52, 4-[(3aR,7aR)-4-(indolizin-2-ylcarbonyl)octahydro-1H-pyrrolo[3,2-b]pyridin-1-yl]-7H-pyrrolo[2,3-d]pyrimidine]
10 to 100 nM	O=C(c1ccccc1)N1CCCC2C1CCN2c1ncnc2[nH]ccc12 (racemic) [Example 29-3, 4-[4-(phenylcarbonyl)octahydro-1H-pyrrolo[3,2-b]pyridin-1-yl]-7H-pyrrolo[2,3-d]-pyrimidine]
10 to 100 nM	O=C(c1cccc2ccccc12)N1CCC[C@@H]2[C@H]1CCN2c1ncnc2[nH]ccc12 [Example 29-20, 4-[(3aR,7aR)-4-(naphthalen-1-ylcarbonyl)octahydro-1H-pyrrolo[3,2-b]pyridin-1-yl]-7H-pyrrolo[2,3-d]pyrimidine]
10 to 100 nM	CC(C(=O)N1CCC[C@@H]2[C@H]1CCN2c1ncnc2[nH]ccc12)N1CCOCC1 (mixture of isomers) [Example 29-43, 4-[(3aR,7aR)-4-(2-morpholin-4-ylpropanoyl)octahydro-1H-pyrrolo[3,2-b]pyridin-1-yl]7H-pyrrolo[2,3-d]pyrimidine]
10 to 100 nM	CC(Cc1ccccc1)C(=O)N1CCC[C@@H]2[C@H]1CCN2c1ncnc2[nH]ccc12 (stereo partly drawn) [Example 29-42, 4-[(3aR,7aR)-4-(2-methyl-3-phenylpropanoyl)octahydro-1H-pyrrolo[3,2-b]pyridin-1-yl]-7H-pyrrolo[2,3-d]pyrimidine]
10 to 100 nM	CCC[C@H]1C[C@H]1C(=O)N1CCC[C@@H]2[C@H]1CCN2c1ncnc2[nH]ccc12 [Example 29-30, 4-[(3aR,7aR)-4-{[(1R,2S)-2-propylcyclopropyl]carbonyl}octahydro-1H-pyrrolo[3,2-b]pyridin-1-yl]-7H-pyrrolo[2,3-d]pyrimidine]
100 to 1000 nM	O=C(c1cc(-c2cccc(F)c2)no1)N1CCC[C@@H]2[C@H]1CCN2c1ncnc2[nH]ccc12 [Example 29-57, 4-[(3aR,7aR)-4-{[3-(3-fluorophenyl)isoxazol-5-yl]carbonyl}octahydro-1H-pyrrolo[3,2b]pryidin-1-yl]-7H-pyrrolo[2,3-d]pyrimidine]
100 to 1000 nM	Cc1cc(C(=O)N2CCC[C@@H]3[C@H]2CCN3c2ncnc3[nH]ccc23)no1 [Example 29-14, 4-{(3aR,7aR)-4[(5-methylisoxazol-3-yl)carbonyl]octahydro-1H-pyrrolo[3,2-b]pyridin-1-yl}-7H-pyrrolo[2,3-d]pyrimidine]
100 to 1000 nM	O=S(=O)(N1CCC[C@@H]2[C@H]1CCN2c1ncnc2[nH]ccc12)C(F)(F)F (single isomer, unassigned) [Example 32-5]
